The values that follow come from US20250179047A1, “5-[7-(3,4-DIHYDRO-1H-ISOQUINOLINE-2-CARBONYL)-1,2,3,4 TETRAHYDROISOQUINOLIN-6-YL]-1H-PYRROLE-3-CARBOXAMIDE DERIVATIVES, PHARMACEUTICAL COMPOSITIONS CONTAINING THEM AND THEIR USES AS PRO-APOPTOTIC AGENTS” (LES LABORATOIRES SERVIER, priority 2022, published 2025).

Each structure is given as a SMILES string.

As a reminder, the IC50 is the concentration that inhibits the measured activity by half. A lower IC50 goes with greater potency.

One experiment concerns the target BCL2 D103Y (Homo sapiens, UniProt P10415, D103Y). In words: TR-FRET competitive binding assay, BCL2 D103Y. As to conditions: Ki determined from IC50, read-out: TR_FRET EKI_Bcl2 D103Y. An outline of the steps: (§1)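 Competitive TR-FRET displacement of fluorescein-PUMA peptide (2 or 20 nM) from 0.5 nM terbium-labelled N-terminal Halo-fusion BCL2 (1-207, wild type or mutant) or BCLXL (2-196), expressed in E. coli. Buffer 50 mM Hepes pH 7.5, 150 mM NaCl, 5% DMSO; 2 h at 23°C. 520/495 nm ratio fitted over 11 points for IC50, converted to Ki.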
(In TR-FRET formats the signal depends on donor and acceptor labels being close together.)

The next experiment deals with BCLXL WT (Homo sapiens (Human), UniProt Q07817). Put plainly: TR-FRET competitive binding assay, BCLXL WT. The conditions noted are these: for Ki: BCLXL WT, Ki determined from IC50, read-out: TR_FRET EKI BclxL; for TR_FRET EKI BCLxL/WT selectivty ratio: ratio Ki BCLxL / Ki BCL2 WT. An outline of the steps: as §1
Sequence of BCLXL WT (Q07817 other isoform, or with tags, fused parts or gaps): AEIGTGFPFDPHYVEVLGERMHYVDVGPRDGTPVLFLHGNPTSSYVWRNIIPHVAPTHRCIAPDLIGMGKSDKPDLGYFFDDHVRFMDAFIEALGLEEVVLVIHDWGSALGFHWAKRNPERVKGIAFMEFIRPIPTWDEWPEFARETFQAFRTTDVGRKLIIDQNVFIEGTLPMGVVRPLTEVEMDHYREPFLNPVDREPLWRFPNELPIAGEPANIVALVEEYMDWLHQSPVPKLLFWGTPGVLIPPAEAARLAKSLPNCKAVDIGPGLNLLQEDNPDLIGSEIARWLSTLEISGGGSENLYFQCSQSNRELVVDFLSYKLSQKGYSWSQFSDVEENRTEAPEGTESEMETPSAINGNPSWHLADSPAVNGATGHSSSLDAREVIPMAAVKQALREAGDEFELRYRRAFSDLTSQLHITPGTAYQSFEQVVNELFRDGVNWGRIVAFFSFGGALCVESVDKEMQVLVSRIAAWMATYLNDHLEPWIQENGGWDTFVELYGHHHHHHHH
Another experiment relates to KMS-12-PE Bcl-2 WT. Put plainly: In vitro cytotoxicity CellTiter-Glo 48 h, KMS-12-PE Bcl-2 WT. Type of experiment: cell-based. The conditions noted are these: Homo sapiens, KMS-12-PE, C50 = concentration needed to reach 50% of the cellular viability. In short, it runs like this:
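KMS-12-PE myeloma cells were lentivirally transduced with wild-type or G101V-mutant Bcl-2 and sorted by TagRFP. They were exposed to compounds as 11-point dose responses for 48 h at 37 °C, 5% CO2. Viability was read by CellTiter-Glo ATP luminescence, and C50 was the concentration giving 50% viability.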

The target of another experiment is BCL2 WT (Homo sapiens (Human), UniProt P10415). In words: TR-FRET competitive binding assay, BCL2 WT. As to conditions: Ki determined from IC50, read-out: TR_FRET EKI_Bcl2 WT. In short, it runs like this:
as §1

Experiment [1] addresses BCL2 G101V (Homo sapiens, UniProt P10415, G101V). Put plainly: TR-FRET competitive binding assay, BCL2 G101V. The conditions noted are these: BCL2 G101V; Ki determined from IC50; read-out: TR_FRET EKI_Bcl2 G101V. In short, it runs like this: as §1
In experiment [2] the test system is BCL2 G101V. In words: TR-FRET competitive binding assay, BCL2 G101V. On the set-up: species or system human. The conditions noted are these: ratio Ki BCL2 G101V / Ki BCL2 WT. In short, it runs like this: as §1

As for `Cc1c(C(=O)N(c2ccccc2)c2cnn(C(F)F)c2)cc(-c2cc3c(cc2C(=O)N2Cc4ccccc4C[C@H]2C)CN(C(=O)Cc2ccc(C#CCN4CCOCC4)cc2)CC3)n1C` [Example 212, N-[1-(difluoromethyl)pyrazol-4-yl]-1,2-dimethyl-5-[7-[(3R)-3-methyl-3,4-dihydro-1H-isoquinoline-2-carbonyl]-2-[2-[4-(3-morpholinoprop-1-ynyl)phenyl]acetyl]-3,4-dihydro-1H-isoquinolin-6-yl]-N-phenyl-pyrrole-3-carboxamide], the Ki on BCL2 D103Y was determined as 0.13 nM; at BCLXL WT, 4.8 nM; on BCL2 WT, 0.05 nM; at BCL2 G101V [1] it was 1.7 nM. The “TR_FRET EKI BCLxL/WT selectivty ratio” value at BCLXL WT was 104.3. In addition, 0.006 µM corresponded to half-maximal inhibition in the experiment on KMS-12-PE Bcl-2 WT (IC50). Also, in the experiment on BCL2 G101V [2], the “TR_FRET EKI G101V/WT selectivty ratio” value stood at 37.0.

In the case of `Cc1c(C(=O)N(c2ccccc2)c2cccc(C#N)c2)cc(-c2cc3c(cc2C(=O)N2Cc4ccccc4C[C@H]2C)CN(C(=O)Cc2ccc(OCCN4CCOCC4)cc2)CC3)n1C` [Example 218, N-(3-cyanophenyl)-1,2-dimethyl-5-[7-[(3R)-3-methyl-3,4-dihydro-1H-isoquinoline-2-carbonyl]-2-[2-[4-(2-morpholinoethoxy)phenyl]acetyl]-3,4-dihydro-1H-isoquinolin-6-yl]-N-phenyl-pyrrole-3-carboxamide], the Ki at BCL2 D103Y stood at 0.08 nM; at BCLXL WT it was 13.8 nM; at BCL2 WT, 0.03 nM; on BCL2 G101V [1], 1.5 nM. For the same compound, the “TR_FRET EKI BCLxL/WT selectivty ratio” value on BCLXL WT is listed as 418.1. 0.0142 µM corresponded to half-maximal inhibition with KMS-12-PE Bcl-2 WT (IC50). Also, the “TR_FRET EKI G101V/WT selectivty ratio” value in the experiment on BCL2 G101V [2] came out at 45.3.

Turning to `Cc1nn(C)cc1N(C(=O)c1cc(-c2cc3c(cc2C(=O)N2Cc4ccccc4C[C@H]2C)CN(C(=O)Cc2ccc(OCCN(C)C)cc2F)CC3)n(C)c1C)c1ccccc1` [Example 222, 5-[2-[2-[4-[2-(dimethylamino)ethoxy]-2-fluoro-phenyl]acetyl]-7-[(3R)-3-methyl-3,4-dihydro-1H-isoquinoline-2-carbonyl]-3,4-dihydro-1H-isoquinolin-6-yl]-N-(1,3-dimethylpyrazol-4-yl)-1,2-dimethyl-N-phenyl-pyrrole-3-carboxamide], the Ki stood at 0.19 nM at BCL2 D103Y, 12.5 nM on BCLXL WT, 0.09 nM at BCL2 WT and 6.3 nM on BCL2 G101V [1]. Also, the “TR_FRET EKI BCLxL/WT selectivty ratio” value at BCLXL WT came out at 138.9. Further, the midpoint of inhibition with KMS-12-PE Bcl-2 WT, the IC50, lay at 0.055 µM. For the same compound, the “TR_FRET EKI G101V/WT selectivty ratio” value in the experiment on BCL2 G101V [2] came to 69.6.

For `COc1ccc(N(C(=O)c2cc(-c3cc4c(cc3C(=O)N3Cc5ccccc5C[C@H]3CN3CC5(CCC5)C3)CN(C(=O)Cc3ccc(OCCN5CCOCC5)cc3F)CC4)n(C)c2C)c2ccc(O)cc2)cc1C#N` [Example 181, 5-[7-[(3S)-3-(2-azaspiro[3.3]heptan-2-ylmethyl)-3,4-dihydro-1H-isoquinoline-2-carbonyl]-2-[2-[2-fluoro-4-(2-morpholinoethoxy)phenyl]acetyl]-3,4-dihydro-1H-isoquinolin-6-yl]-N-(3-cyano-4-methoxy-phenyl)-N-(4-hydroxyphenyl)-1,2-dimethyl-pyrrole-3-carboxamide], the Ki at BCL2 D103Y is 0.09 nM; at BCLXL WT, 9 nM; at BCL2 WT it was 0.04 nM; at BCL2 G101V [1], 0.4 nM. For the same compound, the “TR_FRET EKI BCLxL/WT selectivty ratio” value on BCLXL WT turned out to be 248.7. In the experiment with KMS-12-PE Bcl-2 WT, this compound registered an IC50 of 0.0194 µM. In the experiment with BCL2 G101V [2], the “TR_FRET EKI G101V/WT selectivty ratio” value came to 9.9.
